Laboratory results from patent US7994172B2, “[1H-pyrazolo[3, 4-D]pyrimidin-4-yl]-piperidine or -piperazine compounds as serine-theoronine kinase modulators (P70s6k, Atk1 and Atk2) for the treatment of immunological, inflammatory and proliferative diseases” (Exelixis, Inc., priority 2004, dated 2011).

What was measured:
[1] = target: T1, human p70S6 kinase (p70S6K, kinase domain residues 1-421, T412E mutation) (Homo sapiens, UniProt P23443, T412E); assay: p70S6 kinase assay, Luciferase-Coupled Chemiluminescent Kinase assay (LCCA); format: biochemical; conditions: 5 μM ATP, 12 nM p70S6K; read-out: p70S6K inhibition IC50
T1 construct: human p70S6 kinase domainresidues 1-421, containing a T412E mutation; made in house
Procedure: (§1) Kinase activity and compound inhibition are investigated using one or more of the three assay formats described below. The ATP concentrations for each assay are selected to be close to the Michaelis-Menten constant (KM) for each individual kinase. Dose-response experiments are performed at 10 different inhibitor concentrations in a 384-well plate format. The data are fitted to four-parameter equation (2) below; where Y is the observed signal, X is the inhibitor concentration, Min is the background signal in the absence of enzyme (0% enzyme activity), Max is the signal in the absence of inhibitor (100% enzyme activity), IC50 is the inhibitor concentration at 50% enzyme inhibition and H represents the empirical Hill's slope to measure the cooperativity. Typically H is close to unity. Y=Min+(Max−Min)/(1+(X/IC50)^H) Equation (2) p70S6 Kinase Assay
Biochemical activity of p70S6 kinase was assessed using a Luciferase-Coupled Chemiluminescent Kinase assay (LCCA) format. Kinase activity was measured as the percent ATP remaining following the kinase reaction. Remaining ATP was detected by luciferase-luciferin-coupled chemiluminescence. Specifically, the reaction was initiated by mixing test compounds, 5 μM ATP, 5 μM RRRLSSLRA peptide and 12 nM p70S6K (baculovirus expressed human p70S6 kinase domainresidues 1-421, containing a T412E mutation) in a 20 uL assay buffer (20 mM Tris-HCL pH 7.5, 10 mM MgCl2, 0.02% Triton X-100, 100 mM DTT, 2 mM MnCl2). The mixture is incubated at ambient temperature for 2 hours after which 20 μL luciferase-luciferin mix is added and the chemiluminescent signal read using a Wallac Victor^2 reader. The luciferase-luciferin mix consists of 50 mM HEPES, pH 7.8, 8.5 μg/mL oxalic acid (pH 7.8), 5 (or 50) mM DTT, 0.4% Triton X-100, 0.25 mg/mL coenzyme A, 63 uM AMP, 28 μg/mL luciferin and 40,000 units/mL luciferase.

[2] = target: T2, human Akt1 kinase (kinase domain residues R144-A480, activated with PDK1) (Homo sapiens, UniProt P31749); assay: Akt1 kinase assay, Luciferase-Coupled Chemiluminescent Kinase assay (LCCA); format: biochemical; conditions: 1 μM ATP, 1.3 nM Akt1; read-out: Akt-1 inhibition IC50
T2 construct: made in house
Procedure: as §1
Biochemical activity of Akt1 kinase was assessed using a Luciferase-Coupled Chemiluminescent Kinase assay (LCCA) format. Kinase activity was measured as the percent ATP remaining following the kinase reaction. Remaining ATP was detected by luciferase-luciferin-coupled chemiluminescence. Specifically, the reaction was initiated by mixing test compounds, 1 μM ATP, 5 μM crosstide peptide and 1.3 nM Akt1 (baculovirus expressed human Akt1 kinase domain residues R144-A480, activated with PDK1) in a 20 uL assay buffer (20 mM Tris-HCL pH 7.5, 10 mM MgCl2, 0.01% Triton X-100, 1 mM DTT, 3 mM MnCl2). The mixture is incubated at ambient temperature for 3 hours after which 20 μL luciferase-luciferin mix is added and the chemiluminescent signal read using a Wallac Victor2 reader. The luciferase-luciferin mix consists of 50 mM HEPES, pH 7.8, 8.5 μg/mL oxalic acid (pH 7.8), 5 (or 50) mM DTT, 0.4% Triton X-100, 0.25 mg/mL coenzyme A, 63 uM AMP, 28 μg/mL luciferin and 40,000 units/mL luciferase.

T1 sequence (P23443 1-421 T412E): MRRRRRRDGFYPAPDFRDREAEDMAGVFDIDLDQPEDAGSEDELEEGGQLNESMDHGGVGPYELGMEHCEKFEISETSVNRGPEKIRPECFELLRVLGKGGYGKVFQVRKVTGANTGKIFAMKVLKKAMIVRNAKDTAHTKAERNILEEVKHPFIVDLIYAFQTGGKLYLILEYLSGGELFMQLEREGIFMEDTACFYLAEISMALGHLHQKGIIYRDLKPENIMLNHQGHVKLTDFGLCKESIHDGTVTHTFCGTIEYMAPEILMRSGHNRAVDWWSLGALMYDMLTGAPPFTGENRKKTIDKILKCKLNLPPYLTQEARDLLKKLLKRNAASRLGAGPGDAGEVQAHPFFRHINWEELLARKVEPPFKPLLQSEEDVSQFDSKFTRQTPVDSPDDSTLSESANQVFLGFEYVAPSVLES
T2 sequence (P31749 144-480): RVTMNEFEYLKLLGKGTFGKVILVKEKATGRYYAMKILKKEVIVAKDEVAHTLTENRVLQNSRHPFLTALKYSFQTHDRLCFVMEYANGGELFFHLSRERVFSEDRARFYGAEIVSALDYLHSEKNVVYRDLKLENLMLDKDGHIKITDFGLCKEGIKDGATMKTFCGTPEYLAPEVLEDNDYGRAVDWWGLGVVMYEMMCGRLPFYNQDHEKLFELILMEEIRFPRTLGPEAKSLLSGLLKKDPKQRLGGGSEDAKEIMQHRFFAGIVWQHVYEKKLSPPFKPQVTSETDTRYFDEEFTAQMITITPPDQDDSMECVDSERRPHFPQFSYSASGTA

SMILES | IC50 [1] | IC50 [2]
OCC1CN(c2ncnc3[nH]nc(Br)c23)CCN1Cc1ccc(Cl)cc1 (centres unmarked) [Entry 5, {4-(3-bromo-1H-pyrazolo[3,4-d]pyrimidin-4-yl)-1-[(4-chlorophenyl)methyl]piperazin-2-yl}methanol] | < 50 nM | 50 to 500 nM
C=CCCC(=O)N(c1ccc(Cl)cc1)C1CCN(c2ncnc3[nH]nc(Br)c23)CC1 [Entry 35, N-[1-(3-bromo-1H-pyrazolo[3,4-d]pyrimidin-4-yl)piperidin-4-yl]-N-(4-chlorophenyl)pent-4-enamide] | < 50 nM | 50 to 500 nM
O=C(c1ccc(F)cc1)C1CCN(c2ncnc3[nH]nc(Br)c23)CC1 [Entry 20, [1-(3-bromo-1H-pyrazolo[3,4-d]pyrimidin-4-yl)piperidin-4-yl](4-fluorophenyl)methanone] | < 50 nM | < 50 nM
CN(C)CCNC(=O)C(c1ccc(Cl)cc1)N1CCN(c2ncnc3[nH]nc(Br)c23)CC1=O (centres unmarked) [Entry 14, 2-[4-(3-bromo-1H-pyrazolo[3,4-d]pyrimidin-4-yl)-2-oxopiperazin-1-yl]-2-(4-chlorophenyl)-N-[2-(dimethylamino)ethyl]acetamide] | < 50 nM | < 50 nM
CN(C)CCCOC(c1ccc(Cl)cc1)C1CCN(c2ncnc3[nH]nc(Br)c23)CC1 (centres unmarked) [Entry 3, 3-{[[1-(3-bromo-1H-pyrazolo[3,4-d]pyrimidin-4-yl)piperidin-4-yl](4-chlorophenyl)methyl]oxy}-N,N-dimethylpropan-1-amine] | < 50 nM | < 50 nM
CN(C)CCNC(=O)N(c1ccc(Cl)cc1)C1CCN(c2ncnc3[nH]nc(Br)c23)CC1 [Entry 12, N-[1-(3-bromo-1H-pyrazolo[3,4-d]pyrimidin-4-yl)piperidin-4-yl]-N-(4-chlorophenyl)-N′-[2-(dimethylamino)ethyl]urea] | < 50 nM | < 50 nM
CN(C)CCCC(c1ccc(Cl)cc1)C1CCN(c2ncnc3[nH]nc(Br)c23)CC1 (centres unmarked) [Entry 94, 4-[1-(3-bromo-1H-pyrazolo[3,4-d]pyrimidin-4-yl)piperidin-4-yl]-4-(4-chlorophenyl)-N,N-dimethylbutan-1-amine] | < 50 nM | < 50 nM
CN(C)CCO[C@H](c1ccc(Cl)cc1)C1CCN(c2ncnc3[nH]nc(Br)c23)CC1 [Entry 89, 2-{[(S)-[1-(3-bromo-1H-pyrazolo[3,4-d]pyrimidin-4-yl)piperidin-4-yl](4-chlorophenyl)methyl]oxy}-N,N-dimethylethanamine] | < 50 nM | < 50 nM
CN(C)c1ccc(CN(C)C(c2ccc(F)cc2)C2CCN(c3ncnc4[nH]nc(Br)c34)CC2)cc1 (centres unmarked) [Entry 98, 4-{[{[1-(3-bromo-1H-pyrazolo[3,4-d]pyrimidin-4-yl)piperidin-4-yl](4-fluorophenyl)methyl}(methyl)amino]methyl}-N,N-dimethylaniline] | < 50 nM | 50 to 500 nM
Clc1ccc([C@H](OCCN2CCOCC2)C2CCN(c3ncnc4[nH]nc(Br)c34)CC2)cc1 [Entry 95, 3-bromo-4-(4-{(R)-(4-chlorophenyl)[(2-morpholin-4-ylethyl)oxy]methyl}piperidin-1-yl)-1H-pyrazolo[3,4-d]pyrimidine] | < 50 nM | < 50 nM
Clc1ccc(NC2CCN(c3ncnc4[nH]nc(Br)c34)CC2)cc1 [Entry 59, 1-(3-bromo-1H-pyrazolo[3,4-d]pyrimidin-4-yl)-N-(4-chlorophenyl)piperidin-4-amine] | 50 to 500 nM | > 2000 nM
CN(C)CCO[C@@H](c1ccc(Cl)c(F)c1)C1CCN(c2ncnc3[nH]nc(Br)c23)CC1 [Entry 92, 2-{[(R)-[1-(3-bromo-1H-pyrazolo[3,4-d]pyrimidin-4-yl)piperidin-4-yl](4-chloro-3-fluorophenyl)methyl]oxy}-N,N-dimethylethanamine] | < 50 nM | < 50 nM
CCN(CC)CCC(=O)N(c1ccc(Cl)cc1)C1CCN(c2ncnc3[nH]nc(Br)c23)CC1 [Entry 24, N-[1-(3-bromo-1H-pyrazolo[3,4-d]pyrimidin-4-yl)piperidin-4-yl]-N-(4-chlorophenyl)-N~3~,N~3~-diethyl-beta-alaninamide] | < 50 nM | < 50 nM
